In the assay the target is human complement factor B (CVF-Bb complex) (Homo sapiens (Human), UniProt P00751). The assay is described as follows: Human Complement Factor B ELISA Assay. The format is biochemical. Summed up: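 Preformed CVF-Bb complex (3 nM; cobra venom factor with recombinant human factors B and D) preincubated with compound 1 h, RT, in PBS pH 7.4, 10 mM MgCl2, 0.05% CHAPS. Plasma C3 added at 1 μM final for 1 h, then stopped; C3a product measured by ELISA, IC50 from % inhibition.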
A general note: ELISA stands for enzyme-linked immunosorbent assay.

The mark [1] stands for this setting: CVF-Bb complex 3 nM, 1 hour preincubation with compound at room temperature, human C3 substrate 1 μM, C3a quantified by ELISA, read-out: Factor B IC50.

The values below come from patent publication US9452990B2, “Complement pathway modulators and uses thereof” (NOVARTIS AG, priority 2012, dated 2016).

Where a name gives a salt, the structure may show the parent alone. Read-outs that look alike come from different tables or passages of the source.

With `COc1cc2c(N)nc(N3CCN(C(=O)C[C@@H]4CCCN4)CC3)nc2c(F)c1OC` [Example 110, 1-[4-(4-Amino-8-fluoro-6,7-dimethoxy-quinazolin-2-yl)-piperazin-1-yl]-2-(S)-pyrrolidin-2-yl-ethanone], the IC50 under setting [1] turned out to be 140 nM.
`COc1cc2c(N)nc(N3CCN(C(=O)C[C@@H]4CC[C@H](c5ccccc5)N4)CC3)nc2c(F)c1OC` [Example 111, 1-[4-(4-Amino-8-fluoro-6,7-dimethoxy-quinazolin-2-yl)-piperazin-1-yl]-2-((2S,5R)-5-phenyl-pyrrolidin-2-yl)-ethanone]: under setting [1], the IC50 is 380 nM.
In the case of `COc1cc2c(N)nc(N3CCN(C(=O)CC4NCc5ccccc54)CC3)nc2c(F)c1OC` (stereo not shown) [Example 112, 1-[4-(4-Amino-8-fluoro-6,7-dimethoxy-quinazolin-2-yl)-piperazin-1-yl]-2-(2,3-dihydro-1H-isoindol-1-yl)-ethanone], under setting [1], the IC50 came to 350 nM.
With `COc1cc2c(N)nc(N3CCN(C(=O)C[C@@H]4CCCCN4)CC3)nc2c(F)c1OC` [Example 113, 1-[4-(4-Amino-8-fluoro-6,7-dimethoxy-quinazolin-2-yl)-piperazin-1-yl]-2-(S)-piperidin-2-yl-ethanone], the IC50 under setting [1] stood at 230 nM.
Take `COc1cc2c(N)nc(N3CCN(C(=O)C[C@@H]4CCCNC4)CC3)nc2c(F)c1OC` [Example 114, 1-[4-(4-Amino-8-fluoro-6,7-dimethoxy-quinazolin-2-yl)-piperazin-1-yl]-2-(S)-piperidin-3-yl-ethanone]: under setting [1], the IC50 is 3870 nM.
On to `COc1cc2c(N)nc(N3CCN(C(=O)C[C@@H]4CCCN4)C[C@@H]3C)nc2c(F)c1OC` [Example 115, 1-[(S)-4-(4-Amino-8-fluoro-6,7-dimethoxy-quinazolin-2-yl)-3-methyl-piperazin-1-yl]-2-(S)-pyrrolidin-2-yl-ethanone], for which the IC50 under setting [1] is 320 nM.
Same read-out and setting: then `CC[C@H]1CN(C(=O)C[C@@H]2CCCN2)CCN1c1nc(N)c2cc(OC)c(OC)c(F)c2n1` [Example 116, 1-[(S)-4-(4-Amino-8-fluoro-6,7-dimethoxy-quinazolin-2-yl)-3-ethyl-piperazin-1-yl]-2-(S)-pyrrolidin-2-yl-ethanone], with 540 nM.
With `CC[C@H]1CN(C(=O)C[C@@H]2CCCCN2)CCN1c1nc(N)c2cc(OC)c(OC)c(F)c2n1` [Example 117, 1-[(S)-4-(4-Amino-8-fluoro-6,7-dimethoxy-quinazolin-2-yl)-3-ethyl-piperazin-1-yl]-2-(S)-piperidin-2-yl-ethanone], the IC50 under setting [1] was determined as 780 nM.
On to `CCC[C@H]1CN(C(=O)C[C@@H]2CCCN2)CCN1c1nc(N)c2cc(OC)c(OC)c(F)c2n1` [Example 118, 1-[(S)-4-(4-Amino-8-fluoro-6,7-dimethoxy-quinazolin-2-yl)-3-propyl-piperazin-1-yl]-2-(S)-pyrrolidin-2-yl-ethanone], for which the IC50 under setting [1] was 270 nM.
In turn, `COc1cc2c(N)nc(N3CCN(C(=O)C[C@@H]4CCN4)C[C@@H]3c3ccccc3)nc2c(F)c1OC` [Example 119, 1-[(S)-4-(4-Amino-8-fluoro-6,7-dimethoxy-quinazolin-2-yl)-3-phenyl-piperazin-1-yl]-2-(S)-azetidin-2-yl-ethanone hydrochloride] yielded an IC50 of 610 nM.
On to `COc1cc2c(N)nc(N3CCN(C(=O)C[C@@H]4CCCN4)C[C@@H]3c3ccccc3)nc2c(F)c1OC` [Example 120, 1-[(S)-4-(4-Amino-8-fluoro-6,7-dimethoxy-quinazolin-2-yl)-3-phenyl-piperazin-1-yl]-2-(S)-pyrrolidin-2-yl-ethanone], for which the IC50 under setting [1] amounted to 80 nM.
On the same count and under the same terms, then `COc1cc2c(N)nc(N3CCN(C(=O)C[C@@H]4CCCCN4)C[C@@H]3c3ccccc3)nc2c(F)c1OC` [Example 121, 1-[(S)-4-(4-Amino-8-fluoro-6,7-dimethoxy-quinazolin-2-yl)-3-phenyl-piperazin-1-yl]-2-(S)-piperidin-2-yl-ethanone], with 20 nM; and `COc1cc2c(N)nc(N3CCN(C(=O)C[C@@H]4CCCNC4)C[C@@H]3c3ccccc3)nc2c(F)c1OC` [Example 122, 1-[(S)-4-(4-Amino-8-fluoro-6,7-dimethoxy-quinazolin-2-yl)-3-phenyl-piperazin-1-yl]-2-(S)-piperidin-3-yl-ethanone], with 200 nM.
For the compound `COc1cc2c(N)nc(N3CCN(C(=O)CC4CNCCO4)C[C@@H]3c3ccccc3)nc2c(F)c1OC` (stereo partly drawn) [Example 123, 1-[(S)-4-(4-Amino-8-fluoro-6,7-dimethoxy-quinazolin-2-yl)-3-phenyl-piperazin-1-yl]-2-morpholin-2-yl-ethanone], under setting [1], the IC50 was determined as 890 nM.
Same read-out and setting: the figure for `COCCOc1c(OC)cc2c(N)nc(N3CCN(C(=O)C[C@@H]4CCCN4)CC3)nc2c1F` [Example 124, 1-{4-[4-Amino-8-fluoro-6-methoxy-7-(2-methoxy-ethoxy)-quinazolin-2-yl]-piperazin-1-yl}-2-(S)-pyrrolidin-2-yl-ethanone] is 5950 nM; for `COCCOc1c(OC)cc2c(N)nc(N3CCN(C(=O)C[C@@H]4CCCCN4)CC3)nc2c1F` [Example 125, 1-{4-[4-Amino-8-fluoro-6-methoxy-7-(2-methoxy-ethoxy)-quinazolin-2-yl]-piperazin-1-yl}-2-(S)-piperidin-2-yl-ethanone] it is 9950 nM.
The same measure, in the same setting: the figure for `COc1cc2c(N)nc(N3CCN(C(=O)C[C@@H]4CCCCN4)CC3)nc2c(C#N)c1OC` [Example 126, (S)-4-Amino-6,7-dimethoxy-2-(4-(2-(piperidin-2-yl)acetyl)piperazin-1-yl)quinazoline-8-carbonitrile] is 2900 nM.
With `COc1cc2c(N)nc(N3CCN(C(=O)C[C@H]4NCCc5ccccc54)CC3)nc2c(F)c1OC` [Example 127, 1-[4-(4-Amino-8-fluoro-6,7-dimethoxy-quinazolin-2-yl)-piperazin-1-yl]-2-(R)-1,2,3,4-tetrahydro-isoquinolin-1-yl-ethanone], under setting [1], the IC50 came out at 200 nM.
`COc1cc2c(N)nc(N3CCN(C(=O)CC4NCCc5cc(F)ccc54)CC3)nc2c(F)c1OC` (stereo not shown) [Example 128, 1-[4-(4-Amino-8-fluoro-6,7-dimethoxy-quinazolin-2-yl)-piperazin-1-yl]-2-(6-fluoro-1,2,3,4-tetrahydro-isoquinolin-1-yl)-ethanone]: the IC50 under setting [1] stood at 120 nM.
`COc1cc2c(N)nc(N3CCN(C(=O)C[C@@H](CN)c4ccccc4)CC3)nc2c(F)c1OC` [Example 129, (R)-4-Amino-1-[4-(4-amino-8-fluoro-6,7-dimethoxy-quinazolin-2-yl)-piperazin-1-yl]-3-phenyl-butan-1-one]: the IC50 under setting [1] came to 710 nM.
With `COc1cc2c(N)nc(N3CCN(C(=O)C[C@@H](C(N)=O)c4ccc(F)cc4)CC3)nc2c(F)c1OC` [Example 130, (R)-4-[4-(4-Amino-8-fluoro-6,7-dimethoxy-quinazolin-2-yl)-piperazin-1-yl]-2-(4-fluoro-phenyl)-4-oxo-butyramide], the concentration for half-maximal inhibition (IC50) under setting [1] is 10 nM.
On the same count and under the same terms, the figure for `[2H]C([2H])([2H])C([2H])([2H])N[C@H](CC(=O)N1CCN(c2nc(N)c3cc(OC)c(OC)c(F)c3n2)CC1)c1ccc(F)cc1` [Example 131, (R)-1-(4-(4-amino-8-fluoro-6,7-dimethoxyquinazolin-2-yl)piperazin-1-yl)-3-(1,1,2,2,2-d^5 ethylamino)-3-(4-fluorophenyl)propan-1-one] is 3 nM.

What is called IC50 is the concentration needed to halve the response being measured.
